The values that follow come from PMC8157459, “Exploring the anti-HIV-1 reverse transcriptase, anti-inflammatory, anti-cancer activities and cytotoxicity of two fermented commercial herbal concoctions sold in Limpopo Province of South Africa” (BMC Complementary Medicine and Therapies, 2021).

The target in the assay is T1, human sPLA2 (Type V) (Homo sapiens, UniProt P39877).
T1 construct: gene PLA2G5
T1 sequence (P39877 21-138): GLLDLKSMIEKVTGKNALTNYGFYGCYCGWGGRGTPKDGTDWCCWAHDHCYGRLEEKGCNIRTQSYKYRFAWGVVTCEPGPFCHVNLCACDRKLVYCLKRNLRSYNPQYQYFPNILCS
The assay can be described thus: diheptanoyl thio-PC hydrolysis, DTNB colorimetric. Type of assay: biochemical. The following applies: read-out: sPLA2 (IC50 μg/mL) (converted). An excerpt:
diheptanoyl thio-PC hydrolysis, DTNB colorimetric on human sPLA2 (Type V)

For `CCCCCCCCCCCCCCCCSC[C@H](COP(=O)([O-])OCC[N+](C)(C)C)NC(=O)CCCCCCCCCCCCCCC` [Thioetheramide-PC], the IC50 was 2070 nM.
